According to the supplement of paper PMC10307832:

How the values were obtained:
Assay in all cases: relative viability (nuclei count vs DMSO), 5 days (fraction); higher = more cells survive
Ponatinib + Pictilisib = compound: Cc1ccc(C(=O)Nc2ccc(CN3CCN(C)CC3)c(C(F)(F)F)c2)cc1C#Cc1cnc2cccnn12 [Ponatinib] + CS(=O)(=O)N1CCN(Cc2cc3nc(-c4cccc5[nH]ncc45)nc(N4CCOCC4)c3s2)CC1 [Pictilisib] (partner 1 µM)
Outline: (§1)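 Lung cancer cell lines, seeded in 1536-well plates, were treated the following day by pin tool with a single drug or with five library-drug doses (not always all listed) in √10 steps on top of a fixed anchor-drug dose. Cells were fixed and nuclei stained in one step after 5 days, and nuclei were counted. Relative viability is the nuclei count for treated wells divided by that for vehicle wells, reported as medians of duplicate plates.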

Pazopanib + AZD7762 = compound: Cc1ccc(Nc2nccc(N(C)c3ccc4c(C)n(C)nc4c3)n2)cc1S(N)(=O)=O [Pazopanib] + NC(=O)Nc1cc(-c2cccc(F)c2)sc1C(=O)N[C@H]1CCCNC1 [AZD7762] (partner 0.2 µM)
Outline: as §1

Pazopanib + Trametinib = compound: Cc1ccc(Nc2nccc(N(C)c3ccc4c(C)n(C)nc4c3)n2)cc1S(N)(=O)=O [Pazopanib] + CC(=O)Nc1cccc(-n2c(=O)n(C3CC3)c(=O)c3c(Nc4ccc(I)cc4F)n(C)c(=O)c(C)c32)c1 [Trametinib] (partner 0.02 µM)
Outline: as §1

Ponatinib + Decitabine = compound: Cc1ccc(C(=O)Nc2ccc(CN3CCN(C)CC3)c(C(F)(F)F)c2)cc1C#Cc1cnc2cccnn12 [Ponatinib] + Nc1ncn([C@H]2C[C@H](O)[C@@H](CO)O2)c(=O)n1 [Decitabine] (partner 2 µM)
Outline: as §1

| Cell Line | relative viability (Ponatinib + Pictilisib; first compound 0.002 µM) | relative viability (Ponatinib + Pictilisib; first compound 0.006325 µM) | relative viability (Ponatinib + Pictilisib; first compound 0.06325 µM) | relative viability (Ponatinib + Pictilisib; first compound 0.2 µM) | relative viability (Pazopanib + AZD7762; first compound 0.01 µM) | relative viability (Pazopanib + AZD7762; first compound 0.03162 µM) | relative viability (Pazopanib + AZD7762; first compound 0.1 µM) | relative viability (Pazopanib + AZD7762; first compound 0.3162 µM) | relative viability (Pazopanib + AZD7762; first compound 1 µM) | relative viability (Pazopanib + Trametinib; first compound 0.01 µM) | relative viability (Pazopanib + Trametinib; first compound 0.03162 µM) | relative viability (Pazopanib + Trametinib; first compound 0.1 µM) | relative viability (Pazopanib + Trametinib; first compound 0.3162 µM) | relative viability (Pazopanib + Trametinib; first compound 1 µM) | relative viability (Ponatinib + Decitabine; first compound 0.002 µM) | relative viability (Ponatinib + Decitabine; first compound 0.006325 µM) | relative viability (Ponatinib + Decitabine; first compound 0.06325 µM) | relative viability (Ponatinib + Decitabine; first compound 0.2 µM) |
| --- | --- | --- | --- | --- | --- | --- | --- | --- | --- | --- | --- | --- | --- | --- | --- | --- | --- | --- |
| 201T | 0.649 | 0.685 | 0.801 | 0.725 | 0.534 | 0.511 | 0.667 | 0.685 | 0.615 | 0.719 | 0.729 | 0.737 | 0.783 | 0.705 | 0.849 | 0.862 | 0.914 | 0.811 |
| A549 | 0.527 | 0.645 | 0.608 | 0.401 | – | – | – | – | – | – | – | – | – | – | 0.238 | 0.294 | 0.324 | 0.295 |
| A-427 | 0.691 | 0.756 | 0.529 | 0.531 | 0.864 | 0.786 | 0.825 | 0.784 | 0.716 | 0.7 | 0.882 | 0.679 | 0.71 | 0.753 | 0.547 | 0.507 | 0.592 | 0.49 |
| ABC-1 | 0.826 | 0.78 | 0.884 | 0.658 | 0.797 | 0.757 | – | – | 0.804 | – | – | – | – | – | 1 | 1.03 | 1.16 | 0.91 |
| BEN | 0.544 | 0.62 | 0.601 | 0.462 | 0.592 | 0.75 | 0.607 | 0.775 | 0.786 | 1.05 | 1.04 | 0.916 | 1.08 | 0.925 | 0.723 | 0.687 | 0.699 | 0.656 |
| CAL-12T | 0.425 | 0.464 | 0.515 | 0.432 | 0.594 | 0.579 | 0.527 | 0.568 | 0.652 | 0.32 | 0.437 | 0.331 | 0.437 | 0.446 | – | – | – | – |
| COR-L23 | 0.768 | 0.753 | 1.04 | 0.703 | – | – | – | – | – | 0.511 | 0.649 | 0.698 | 0.625 | 0.773 | 0.391 | 0.427 | 0.504 | 0.424 |
| COR-L 105 | 0.424 | 0.379 | 0.443 | 0.567 | – | – | – | – | – | 0.468 | 0.406 | 0.438 | 0.427 | 0.58 | 0.671 | 0.674 | 0.821 | 0.61 |
| Calu-6 | 0.92 | 0.87 | 0.928 | 0.724 | – | – | – | – | – | – | – | – | – | – | – | – | – | – |
| ChaGo-K-1 | 0.59 | 0.917 | 0.879 | 0.644 | 0.859 | 0.859 | 0.971 | 0.82 | 0.865 | 0.908 | 0.75 | 0.904 | 0.905 | 0.901 | 0.517 | 0.507 | 0.54 | 0.512 |
| EBC-1 | 0.372 | 0.428 | 0.327 | 0.283 | – | – | – | – | – | – | – | – | – | – | – | – | – | – |
| EKVX | 0.534 | 0.5 | 0.625 | 0.488 | 0.705 | 0.599 | 0.755 | 0.654 | 0.636 | 0.337 | 0.349 | 0.267 | 0.318 | 0.449 | 0.329 | 0.366 | 0.378 | 0.357 |
| EMC-BAC-2 | 0.549 | 0.537 | 0.684 | 0.527 | – | 1.14 | 1.09 | 1.14 | 1.2 | – | 0.965 | 0.897 | 0.931 | 1.1 | 0.927 | 0.899 | 1.04 | 0.842 |
| EPLC-272H | 0.29 | 0.373 | 0.342 | 0.335 | – | 0.227 | 0.238 | 0.132 | 0.217 | – | 0.278 | 0.281 | 0.251 | 0.285 | 0.334 | 0.399 | 0.416 | 0.326 |
| H3255 | 0.466 | 0.478 | 0.456 | 0.447 | 0.897 | 0.906 | 0.847 | 0.883 | 0.913 | 0.512 | 0.564 | 0.617 | 0.739 | 0.731 | 0.566 | 0.512 | 0.717 | 0.552 |
| HARA | 0.443 | 0.478 | 0.498 | 0.296 | 0.428 | 0.303 | 0.255 | 0.35 | 0.349 | 0.829 | 0.94 | 0.604 | 0.755 | 0.725 | 0.486 | 0.632 | 0.568 | 0.665 |
| HCC-15 | 0.644 | 0.758 | 0.823 | 0.701 | 1.3 | 1.15 | 1.31 | 1.22 | 1.15 | 0.326 | 0.338 | 0.382 | 0.417 | 0.406 | 0.666 | 0.671 | 0.744 | 0.634 |
| HCC-44 | 0.69 | 0.65 | 0.73 | 0.628 | 1.07 | 0.979 | 0.979 | 1.01 | 0.982 | 1.03 | 1 | 1.03 | 1 | 1.09 | 0.936 | 0.976 | 0.898 | 0.884 |
